According to BindingDB's records for doi:10.7270/Q2TX3CTT (Broad Institute, 2010):

Molecular target: Glycogen synthase kinase-3 beta (Homo sapiens, UniProt P49841)
Assay: concentration-response blocking of human GSK3B – biochemical, luminescence, cell-free homogeneous, retest, dose response (AID 434954)

Chain of Glycogen synthase kinase-3 beta (P49841 whole entry): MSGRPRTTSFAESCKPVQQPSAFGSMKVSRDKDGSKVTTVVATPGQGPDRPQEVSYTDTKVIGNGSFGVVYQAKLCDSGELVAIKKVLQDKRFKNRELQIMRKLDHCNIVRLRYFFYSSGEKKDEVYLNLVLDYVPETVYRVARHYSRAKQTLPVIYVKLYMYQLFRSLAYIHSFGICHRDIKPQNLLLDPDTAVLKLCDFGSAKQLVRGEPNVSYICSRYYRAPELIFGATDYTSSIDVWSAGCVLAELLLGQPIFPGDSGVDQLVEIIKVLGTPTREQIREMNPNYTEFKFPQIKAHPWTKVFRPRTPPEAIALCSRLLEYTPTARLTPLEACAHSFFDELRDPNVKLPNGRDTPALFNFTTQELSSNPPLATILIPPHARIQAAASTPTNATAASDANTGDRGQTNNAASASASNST

SMILES | EC50 [µM]
N#Cc1ccccc1NC(=O)CSc1nnc(-c2ccncc2)o1 | > 300
Fc1cccc(CN=Nc2ncnc3nc[nH]c23)c1 | 11.9
COc1ccccc1/C=C/C=C1\Oc2c(ccc(O)c2CN(C)C)C1=O [(2Z)-7-[(dimethylamino)methyl]-6-hydroxy-2-[(E)-3-(2-methoxyphenyl)prop-2-enylidene]-1-benzofuran-3-one] | 33.8
CC(NC(=O)/C=C/c1ccco1)c1nc2ccccc2n1Cc1ccccc1F (stereo not drawn) | > 300
O=NCc1ccc(N2CCCC2)c([N+](=O)[O-])c1 | 5.66
Cc1ccc(-n2c(C)c([N+](=O)[O-])c3ccc(O)cc32)cc1 [2-methyl-1-(4-methylphenyl)-3-nitro-indol-6-ol] | > 300
O=C(O)CCn1cc(C(=O)O)c(-c2ccccc2)n1 [1-(2-carboxyethyl)-3-phenyl-4-pyrazolecarboxylic acid] | > 300
CCOC(=O)c1cnc2ccc(C)cc2c1Nc1ccc(N2CCOCC2)cc1 [6-methyl-4-(4-morpholinoanilino)quinoline-3-carboxylic acid ethyl ester] | > 300
O=C(Nc1ccccn1)Nc1ccccc1Cl | > 300
O=C(O)/C=C/C(=O)NCC1CCC(CNC(=O)/C=C/C(=O)O)CC1 (stereo not drawn) [(E)-4-[[4-[[[(E)-3-carboxy-1-oxoprop-2-enyl]amino]methyl]cyclohexyl]methylamino]-4-oxo-2-butenoic acid] | > 300
Cn1cc(S(=O)(=O)NCc2ccc(F)cc2)c(=O)n(C)c1=O | > 300
N#CC(C#N)=Cc1cc2ccccc2nc1N1CCOCC1 [2-[(2-morpholin-4-ylquinolin-3-yl)methylidene]propanedinitrile] | > 300
O=C1Nc2ccccc2C1=Cc1cnc[nH]1 [SMR000180717] | 2.99
O=C1CN(C(=O)c2ccco2)c2ccccc2N1 [4-(Furan-2-carbonyl)-3,4-dihydro-1H-quinoxalin-2-one] | > 300
COC(=O)C(C)Sc1ccc2nnc(-c3ccc(F)cc3)n2n1 (stereo not drawn) [MLS000093331] | 11.9
O=C(O)c1cccnc1-c1ncccc1C(=O)O | > 300
O=[N+]([O-])c1ccccc1[CH+][N-]n1c(C2CCCCC2)n[nH]c1=S [5-Cyclohexyl-4-{[1-(2-nitro-phenyl)-meth-(E)-ylidene]-amino}-4H-[1,2,4]triazole-3-thiol] | 155
CSc1nc(C)cc(-n2ccc(=O)[nH]c2=O)n1 [1-[6-methyl-2-(methylthio)-4-pyrimidinyl]pyrimidine-2,4-dione] | 25.8
Cc1nnc2n(-c3ccccc3)c(=O)c3c4c(sc3n12)CC(C)CC4 (stereo not drawn) [MLS000030539] | > 300
C=CCN1C(=O)C(Cc2ccc(Br)cc2)SC1=NN=Cc1ccco1 (stereo not drawn) | > 300
CCOC(=O)/C(C#N)=C/c1cn(CCC(=O)O)nc1-c1ccccc1 [3-[4-[(E)-2-cyano-3-ethoxy-3-oxoprop-1-enyl]-3-phenyl-1-pyrazolyl]propanoic acid] | > 300
CCCN(CCC)Cc1c(C(=O)NN=C/C(C)=C\c2ccccc2)nnn1-c1nonc1N [1-(4-azanyl-1,2,5-oxadiazol-3-yl)-5-[(dipropylamino)methyl]-N-[[(Z)-2-methyl-3-phenyl-prop-2-enylidene]amino]-1,2,3-triazole-4-carboxamide] | > 300
COc1ccc(/C=C2/Sc3ccc(C(=O)NCCCN4CCOCC4)cc3NC2=O)cc1OC [(2E)-2-[(3,4-dimethoxyphenyl)methylidene]-N-[3-(4-morpholinyl)propyl]-3-oxo-4H-1,4-benzothiazine-6-carboxamide] | 60.3
CCOC(=O)Cc1csc(NC(=O)c2c(O)c3ccccc3n(CCC(C)C)c2=O)n1 [SMR000284490] | > 300

The remaining lines, values ahead:

EC50 [µM] | SMILES
5.41 | COC1=CC(CN=Nc2ccc([N+](=O)[O-])cn2)C=C(OC)C1=O [MLS001173549]
38.1 | O=C(NN=Cc1ccco1)Nc1cccc(Cl)c1 [SMR000203570]
0.531 | COCCCNC(=O)c1cccn2c(=O)c3cc4ccccc4cc3nc12 [N-(3-methoxypropyl)-12-oxidanylidene-12H-benzo[g]pyrido[2,1-b]quinazoline-4-carboxamide]
> 300 | O=c1cc(-c2ccccc2Cl)oc2c(NS(=O)(=O)c3cccs3)ccc(O)c12 [MLS000518499]
> 300 | CCOc1cc(C)cc2oc(=O)cc(-c3ccccc3)c12 [SMR000116517]
> 300 | CC(C)Nc1nnc(SCC(=O)NCc2ccc3c(c2)OCO3)s1 [SMR000375706]
> 300 | O=C(c1cccs1)c1coc2ccc(O)c(CN3CCOCC3)c12 [[4-(morpholin-4-ylmethyl)-5-oxidanyl-1-benzofuran-3-yl]-thiophen-2-yl-methanone]
> 300 | Cc1ccc(NC(=O)CSCc2ccc(F)cc2)cc1 [MLS000701707]
> 300 | O=C(NCC(c1ccco1)N1CCc2ccccc21)c1c(F)cccc1F (stereo not drawn) [N-[2-(2,3-dihydroindol-1-yl)-2-(furan-2-yl)ethyl]-2,6-bis(fluoranyl)benzamide]
23 | O=NCc1ccc(Oc2ccc(F)cc2)c([N+](=O)[O-])c1 [N-[[4-(4-fluorophenoxy)-3-nitrophenyl]methylidene]hydroxylamine]
> 300 | CCCN1CCN(CCCNC(=O)Cn2nc(C)n3c(cc4cc(OC)ccc43)c2=O)CC1 [MLS001110985]
> 300 | COC(=O)c1nnn(-c2nonc2N)c1CSc1nc2ccccc2s1 [methyl 1-(4-amino-1,2,5-oxadiazol-3-yl)-5-(1,3-benzothiazol-2-ylsulfanylmethyl)triazole-4-carboxylate]
> 300 | COc1cc(/C=N/NC(=O)c2ccccc2F)ccc1Oc1ccc([N+](=O)[O-])cn1 [MLS000779573]
> 300 | Fc1ccc(CSc2nnc(-c3cccs3)o2)cc1 [SMR000003242]
> 300 | O=C(Nc1cccc2c1C(=O)NC2=O)c1cccnc1Cl [N-[1,3-bis(oxidanylidene)isoindol-4-yl]-2-chloranyl-pyridine-3-carboxamide]
> 300 | CC(=O)N1CCc2c(sc(NC(=O)CS(=O)(=O)c3ccc(F)cc3)c2C(N)=O)C1 [SMR000808580]
> 300 | C[O+]=N[CH-]c1ccc(N2CCOCC2)c([N+](=O)[O-])c1 [N-methoxy-1-(4-morpholin-4-yl-3-nitro-phenyl)methanimine]
> 300 | O=C(O)c1ccccc1NCc1cccnc1 [SMR000473304]
19.2 | Cc1cn(C2OC(COC(=O)c3ccccc3)C(O)C2O)c(=O)[nH]c1=O (stereo not drawn) [benzoic acid [3,4-dihydroxy-5-(5-methyl-2,4-dioxo-1-pyrimidinyl)-2-oxolanyl]methyl ester]
83.8 | CCOC(=O)CC(=O)CSc1ccc2nnc(-c3ccc(F)cc3)n2n1 [ethyl 4-{[3-(4-fluorophenyl)[1,2,4]triazolo[4,3-b]pyridazin-6-yl]thio}-3-oxobutanoate]
> 300 | Cc1cccc(COc2ccc(/C=C3/C(=O)N(C)C(=S)N3C)cc2)c1 [MLS001164511]
> 300 | O=C(NCC(c1cccs1)N1CCOCC1)c1ccccc1NS(=O)(=O)c1ccc(Cl)cc1 (stereo not drawn) [SMR000242318]
0.742 | COCCCNc1nc(N)c([N+](=O)[O-])c(Nc2cc(OC)ccc2OC)n1 [N4-(2,5-dimethoxyphenyl)-N2-(3-methoxypropyl)-5-nitro-pyrimidine-2,4,6-triamine]
> 300 | COC(=O)CSc1ncnc2c1sc1nc(N3CCOCC3)c3c(c12)CCCC3 [MLS000535174]
